Data reported in patent US20220267376A1, “P53 ACTIVATOR PEPTIDOMIMETIC MACROCYCLES” (Merck Sharp & Dohme Corp., priority 2019, published 2022).
Read-outs that look alike come from different tables or passages of the source. Values belong to the molecule of their own block, whether it stands above or below them. Starred links: 1 amine or outer side, 2 acyl side, 3 side chain; linkers in the order of their positions; H or OH if unused. Positions of bridges follow the written chain, without caps; N, C: chain ends. Non-standard residues stand in square brackets, D forms with d. Residues, ends and D or L forms follow the SMILES beside them. No end group written: not given here. ξ: configuration not given here. dPhe(4-CF3) = N[C@H](Cc1ccc(C(F)(F)F)cc1)C(=O)O; dTrp(6-F) = N[C@H](Cc1c[nH]c2cc(F)ccc12)C(=O)O; ξPhe(4-CF3) = NC(Cc1ccc(C(F)(F)F)cc1)C(=O)O; X1 = C[C@](CCCCC=[*:3])(N[*:1])C(=O)[*:2]; R8 = C=CCCCCCC[C@@](C)(N)C(=O)O; S8 = C=CCCCCCC[C@](C)(N)C(=O)O; R5 = C=CCCC[C@@](C)(N)C(=O)O; S5 = C=CCCC[C@](C)(N)C(=O)O

Columns and labels:
MDM4 = target: T1, MDM4 (Homo sapiens, UniProt O15151); test: Fluorescence polarization (FP) binding to MDM4/MDMX
T1 construct: GST; made in house
T1 sequence (O15151 1-490): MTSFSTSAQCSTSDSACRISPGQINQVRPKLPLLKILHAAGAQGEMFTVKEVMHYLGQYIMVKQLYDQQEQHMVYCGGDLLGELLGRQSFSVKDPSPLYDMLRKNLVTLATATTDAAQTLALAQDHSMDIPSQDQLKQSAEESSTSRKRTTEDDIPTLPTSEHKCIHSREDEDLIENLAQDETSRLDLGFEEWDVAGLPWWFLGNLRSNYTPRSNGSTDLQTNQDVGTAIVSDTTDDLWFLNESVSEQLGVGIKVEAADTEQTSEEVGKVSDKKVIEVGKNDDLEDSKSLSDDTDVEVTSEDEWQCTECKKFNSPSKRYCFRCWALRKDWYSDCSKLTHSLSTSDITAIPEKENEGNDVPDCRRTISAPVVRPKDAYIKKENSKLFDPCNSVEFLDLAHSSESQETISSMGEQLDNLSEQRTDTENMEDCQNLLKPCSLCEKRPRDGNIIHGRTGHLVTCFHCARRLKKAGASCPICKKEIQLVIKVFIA

MDM2 [1] = target: T2, MDM2 (Homo sapiens, UniProt Q00987); test: Surface plasmon resonance (SPR) binding to MDM2; details: MDM2
T2 construct: GST (N); His6 (N); made in house; host or cells: E. coli BL21 (DE3) Rosetta T1R

[2] = test system: Jump-In™ T-REx™ CHO-K1 BLA cells; test: Tetracycline beta-lactamase reporter gene assay (counterscreen); format: cell-based; details: for EC50: read-out: Counterscreen EC50 (μM) (2% FBS) 16 H, 2% FBS, 16 H
Protocol: Cells were seeded into a 384-well plate a density of 4000 cells per well. […] Measurements were carried out using Envision multiplate reader (Perkin-Elmer).

[3] = test system: HCT116 p53 reporter cells; test: p53 beta-lactamase reporter gene assay; format: cell-based; details: for p53 activation in reporter cells: 16 hours, up to 50 μM; for EC50: read-out: P53 activity EC50 (μM) (2% FBS) 16 H, HCT116 p53 reporter, 2% FBS, 16 H
Protocol: The cells were incubated overnight and followed by removal of cell growth media and replaced with Opti-MEM either containing 0% FBS or 10% FBS. […] Measurements were done using Envision multiplate reader (Perkin-Elmer).

HCT116 cells = test: Lactate dehydrogenase (LDH) release assay; format: cell-based; details: up to 50 μM
Protocol: The cells were incubated overnight followed by removal of cell media and addition of Opti-MEM Medium without FBS. Cells were then treated with peptides for 4/16 hours in Opti-MEM either in 10% FBS or serum free. Final concentration of DMSO was 0.5%. […] Measurements were carried out using Tecan plate reader.

[4] = Circular dichroism (CD) helicity of peptide in solution; format: physicochemical; details: 25° C.
Protocol: Prior to the experiment, 5 μl of the 10 mM stock peptide was mixed with 45 μl of 100% methanol, and dried for 2 hours in the SpeedVac concentrator (Thermo Scientific). The dried peptide was reconstituted in buffer, containing 1 mM HEPES pH 7.4 and 5% methanol, to a concentration of 1 mM. The peptide sample was placed in a quartz cuvette with a path length of 0.2 cm and the CD spectrum was recorded from 300 to 190 nm at 25° C., using the Chirascan-plus qCD machine (Applied Photophysics). […] An estimate of the secondary stmcture components of the peptide was carried out by converting the CD spectrum to mean residue ellipticity, before deconvoluting using the CDNN software (distributed by Applied Photophysics). All experiments were done in duplicates.

MDM2 [5] = target: T2, MDM2; test: MDM2 binding assay, fluorescence polarization (FP) competition
HCT-116 cells = test: HCT-116 western blot analysis (p53, MDM2, p21); format: cell-based; details: 6.123, 12.5 and 25 μM, 4 or 24 hours
Protocol: Preparation of compound Stock and working Solutions: 10 mM or 1 mM stock solutions of compounds were prepared in 100% DMSO. Each compound was then serially diluted in 100% DMSO and further diluted 10-fold into HPLC grade sterile water to prepare 10× working solutions in 10% DMSO/water of each compound. Depending on the required volume used in the relevant assay, compounds were added to yield final concentrations as indicated in the relevant figure with a residual DMSO concentration of 1% v/v.
HCT116 cells (Thermo Fisher Scientific) were cultured in DMEM cell media, which was supplemented with 10% foetal calf serum (FBS) and penicillin/streptomycin. All cell lines were maintained in a 37° C. humidified incubator with 5% CO2 atmosphere. HCT116 cells were seeded into 96 well plates at a cell density of 60,000 cells per well and incubated overnight. Cells were also maintained in DMEM cell media with 10% fetal bovine serum (FBS) and penicillin/streptomycin. Cell media was then removed and replaced with cell media containing the various compounds/vehicle controls at the concentrations indicated in DMEM cell media with 2% FCS, After the stated incubation time (4 or 24 hours) cells were rinsed with PBS and then harvested in 100 μl of × NuPAGE LDS sample buffer supplied by Invitrogen (NP0008). […] Protein concentrations were measured by BCA assay (Pierce). […]

MDM4 protein (human) [6] = target: MDM4 protein (human) (UniProt O15151); test: fluorescence polarization assay on MDM4 (anisotropy falls with the peptide concentration; the labeled tracer used with MDM4 is not given)
[7] = target: T3, human MDM2 protein (amino acids 1-125) (Homo sapiens, UniProt Q00987); test: SPR, biotinylated MDM2 on streptavidin, peptide as analyte
MDM4 protein (human) [8] = target: MDM4 protein (human) (UniProt O15151); test: fluorescence polarization, MDM4
[9] = target: T3, human MDM2 protein (amino acids 1-125); test: fluorescence anisotropy competition: unlabeled peptide titrated against the complex of MDM2 (250 nM) and FAM-labeled 12/1 peptide (50 nM)
[10] = target: T3, human MDM2 protein (amino acids 1-125); test: fluorescence polarization, MDM2
[11] = target: T3, human MDM2 protein (amino acids 1-125); test: fluorescence anisotropy competition: unlabeled peptide titrated against the complex of MDM2 (250 nM) and FAM-labeled 12/1 peptide (50 nM); remark: listed apart in the source
[12] = target: T3, human MDM2 protein (amino acids 1-125); test: cell-based or functional assay
[13] = target: T3, human MDM2 protein (amino acids 1-125); test: fluorescence polarization competition, FAM-12/1 tracer, MDM2
[14] = target: T3, human MDM2 protein (amino acids 1-125); test: fluorescence polarization competition, MDM2
[15] = target: T3, human MDM2 protein (amino acids 1-125); test: fluorescence polarization competition, FAM-12/1 tracer, MDM2; FP assay: no binding, Kd capped at 10000 nM

T3 sequence (Q00987 1-125 limits assumed): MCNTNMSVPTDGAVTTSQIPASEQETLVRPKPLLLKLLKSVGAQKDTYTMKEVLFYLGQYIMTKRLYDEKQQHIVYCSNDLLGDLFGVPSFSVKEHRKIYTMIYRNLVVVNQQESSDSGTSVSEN

Molecule: CC(C)C[C@H]1NC(=O)[C@@H](CCCCN)NC(=O)[C@@H](CCC(=O)O)NC(=O)[C@@H](Cc2ccc(C(F)(F)F)cc2)NC(=O)[C@@H](CC(N)=O)NC(=O)[C@]2(CCC/C=C\CCCCCC[C@](C)(C(N)=O)NC(=O)[C@@H](CC(C)C)NC1=O)CCC/C=C\CCC[C@@](C)(N)C(=O)N[C@H](C)C(=O)N[C@H](Cc1c[nH]c3cc(F)ccc13)C(=O)N[C@H](Cc1ccc(O)cc1)C(=O)N2 [^DPMI-δ (1-5-12)]
Kd (MDM4; FP assay, MDM4 (MDMX)): 12.5 nM
Kd (MDM2 [1]; Table 1): < 1 nM
Kd (MDM2 [1]; Table 2): < 1 nM
Western blot: stabilization of MDM2 and activation of p53 (HCT-116 cells): Stabilization of MDM2 and activation of p53
counterscreen activity [2]: negligible counter screen activity
EC50 [2]: ≥ 50 µM
EC50 [3]: 4 µM
LDH leakage (HCT116 cells): No detectable LDH leakage
CD (% helicity) [4]: 52.1%
CD (% helicity) ([4]; listed as DPMI-δ(1,5,12)): 52%
CD (% helicity) ([4]; listed as stitched peptide): 52%

Molecule: CC(=O)N[C@@H](CC(C)C)C(=O)N[C@H](C(=O)N[C@@H](Cc1ccccc1)C(=O)N[C@]1(C)CCCCCCC=CCCC[C@@](C)(C(=O)N[C@@H](CO)C(=O)N[C@@H](C)C(=O)N[C@@H](C)C(N)=O)NC(=O)[C@H](CC2CCC2)NC(=O)[C@H](CCC(N)=O)NC(=O)[C@H](C)NC(=O)[C@H](Cc2c[nH]c3ccccc23)NC(=O)[C@H](Cc2ccc(O)cc2)NC(=O)[C@H](CCC(=O)O)NC1=O)[C@@H](C)O [ATSP-7041, reference compound]
Western blot: stabilization of MDM2 and activation of p53 (HCT-116 cells): Stabilization of MDM2 and activation of p53
EC50 [2]: ≥ 50 µM
EC50 [3]: 1.8 µM

Molecule: ATSP-7041 (peptide)
IC50 (read off the curve) (MDM4 protein (human) [6]): 1000 nM
Kd [7]: < 1 nM
Kd (MDM4 protein (human) [8]): 4.5 nM
IC50 (read off the curve) [9]: 500 nM
Kd [10]: 2 nM

Molecule: CC(C)C[C@@H](NC(=O)[C@@H](CC(C)C)NC(=O)[C@@]1(C)CCC/C=C\CCCCCC[C@](C)(NC(=O)[C@H](N)[C@H](C)O)C(=O)N[C@H](Cc2c[nH]c3cc(F)ccc23)C(=O)N[C@H](Cc2ccc(O)cc2)C(=O)N[C@H](C)C(=O)N[C@H](CC(N)=O)C(=O)NC(Cc2ccc(C(F)(F)F)cc2)C(=O)N[C@H](CCC(=O)O)C(=O)N1)C(=O)N[C@H](CCCNC(=N)N)C(N)=O (stereo partly drawn) [^DPMI-(2-9)] (H-[dT][S8][dTrp(6-F)][dY][dA][dN][ξPhe(4-CF3)][dE][R5][dL][dL][dR]-NH2; staple (Z) 2-9)
binding to MDMX in FP assay (MDM4): no binding
Kd (MDM2 [1]; Table 1): 7.4 nM
EC50 [2]: ≥ 50 µM
p53 activation in reporter cells [3]: unable to activate cellular p53
LDH leakage (HCT116 cells): did not cause LDH leakage
CD (% helicity) [4]: 26.5%
binding to MDM2 in FP assay (MDM2 [5]): no binding
Kd (MDM2 [5]; apparent Kd, competition with FAM-labeled 12/1 peptide): 3350 nM

Continued, in another order:

binding to MDMX in FP assay (MDM4): no binding
Kd (MDM2 [1]; Table 1): 29 nM
LDH leakage (HCT116 cells): did not cause LDH leakage
CD (% helicity) [4]: 38.0%
binding to MDM2 in FP assay (MDM2 [5]): no binding
Molecule: CC(C)C[C@@H](NC(=O)[C@@H](CC(C)C)NC(=O)[C@@]1(C)CCCC/C=C\CCC[C@@](C)(NC(=O)[C@@H](Cc2ccc(O)cc2)NC(=O)[C@@H](Cc2c[nH]c3cc(F)ccc23)NC(=O)[C@@H](C)NC(=O)[C@H](N)[C@H](C)O)C(=O)N[C@H](CC(N)=O)C(=O)N[C@H](Cc2ccc(C(F)(F)F)cc2)C(=O)N[C@H](CCC(=O)O)C(=O)N1)C(=O)N[C@H](CCCNC(=N)N)C(N)=O [^DPMI-δ (5-9)] (H-[dT][dA][dTrp(6-F)][dY][R5][dN][dPhe(4-CF3)][dE][X1][dL][dL][dR]-NH2; staple (Z) 5-9)
EC50 [2]: 47 µM
p53 activation in reporter cells [3]: unable to activate cellular p53

IC50 (read off the curve) (MDM4 protein (human) [6]): 1000 nM
IC50 (read off the curve) [11]: 200 nM
P53 activity EC50 (µM) (2% FBS) 16 H [12]: 4 µM
Kd [13]: 4.25 nM
Kd [7]: < 1 nM
fold increase in affinity as compared to ^DPMI-δ(1-5) and ^DPMI-δ(5-12) [14]: 10 to 100 fold
B1: ^DPMI-δ(1,5,12) (peptide)
peptide: XAXYXNXEKLLX
modifications: all alpha-amino acids have a D configuration; Xaa1 is R5 ((R)-2-(4'-pentenyl)-alanine), Xaa5 is B5 (2,2-(4'-pentenyl)-glycine), Xaa12 is R8 ((R)-2-(7'-octenyl)-alanine), joined by a hydrocarbon stitch 1-5 and 5-12 with residue 5 in common; Xaa3 is 6-F-Trp; Xaa7 is p-CF3-Phe; Xaa12 optionally has a C-terminal amide; Xaa1 optionally has a N-terminal acyl

P53 activity EC50 (µM) (2% FBS) 16 H [12]: > 50 µM
Kd [13]: > 10000 nM
Kd [7]: > 500 nM
Molecule: [dT][R5][dTrp(6-F)][dY][dA][R5][dPhe(4-CF3)][dE][dK][dL][dL][dR]-NH2 (staple 2-6) [^DPMI-δ(2-6)]

IC50 (read off the curve) (MDM4 protein (human) [6]): 600 nM
IC50 (read off the curve) [11]: 500 nM
P53 activity EC50 (µM) (2% FBS) 16 H [12]: 13.7 µM
cellular activation of p53, EC50 (HCT116 p53 reporter cells) [12]: 17500 nM
Kd [7]: < 1 nM
B2: ^DPMI-δ(1-5) (peptide)
peptide: XAXYXNXEKLLR
modifications: all alpha-amino acids have a D configuration; Xaa1 is R5 and Xaa5 is R5 ((R)-2-(4'-pentenyl)-alanine), joined by a hydrocarbon staple; Xaa3 is 6-F-Trp; Xaa7 is p-CF3-Phe; Xaa12 optionally has a C-terminal amide; Xaa1 optionally has a N-terminal acyl

IC50 (read off the curve) (MDM4 protein (human) [6]): 2000 nM
IC50 (read off the curve) [11]: 200 nM
P53 activity EC50 (µM) (2% FBS) 16 H [12]: 34.6 µM
Kd [13]: 0.7 nM
Kd [7]: < 1 nM
fold increase in affinity as compared to ^DPMI-δ(1-5) and ^DPMI-δ(5-12) [14]: 10 to 100 fold
Molecule: [R5][dA][dTrp(6-F)][dY][R5][dN][dPhe(4-CF3)][dE][S5][dL][dL][R8]-NH2 (staple 1-5, 9-12) [^DPMI-δ(1-5,9-12)]

P53 activity EC50 (µM) (2% FBS) 16 H [12]: > 50 µM
Kd [15]: > 10000 nM
Molecule: [dT][dA][dTrp(6-F)][dY][R5][dN][dPhe(4-CF3)][dE][R5][dL][dL][dR]-NH2 (staple 5-9) [^DPMI-δ(5-9)]
